Test results from patent EP0729465B1, “PYRONE DERIVATIVES AS PROTEASE INHIBITORS AND ANTIVIRAL AGENTS” (PARKE, DAVIS & COMPANY, priority 1993, dated 1995).
Where two headings read alike, the source gives them in different places. Values belong to the compound of their own block, whether it stands above or below them.

Columns and labels:
HIV-I Protease = biological target: T1, HIV-I Protease (Human immunodeficiency virus type 1 group M subtype B, UniProt P04585); assay: HIV protease inhibition (hydrolysis of undecapeptide substrate, HPLC readout); assay type: biochemical; settings: read-out: 50% Inhibition Concentration (Averaged)
T1 construct: HIV-I Protease: The enzyme is obtained from Bachem Bioscience Inc; purchased Bachem Bioscience Inc
Experimental: • DTT Buffer: 1.0 mM dithiothreitol (DTT) was prepared fresh daily in 0.1% polyethylene glycol (mw 8000) 80 mM NaOAc, 160 mM NaCl, 1.0 mM EDTA, and brought to pH 4.7 with HCl. • HIV-I Protease: The enzyme is obtained from Bachem Bioscience Inc. The undiluted enzyme is thawed from -80 °C and diluted 50-fold with DTT buffer. The solution is always kept at 0 °C on ice water and used in the experiment within 20 minutes after thawing. • Enzyme Substrate: Substrate III from Bachem Bioscience Inc. is the undecapeptide H-His-Lys-Ala-Arg-Val-Leu-p-Nitrophenylalanine-Glu-Ala-Norleucine-ser-NH2 (> 97 % purity). A 200. µM stock solution in DTT buffer is prepared and stored on ice. Substrate solution is prepared fresh daily. • Test Compound: 10 mM inhibitor (I) in dimethyl sulfoxide (DMSO) is diluted to 200 µM with DTT buffer. From the 200 µM stock solution is made a 10 µM stock solution with 2% DMSO in DTT buffer. The two inhibitor solutions are used to make final [I] = 100, 50, 20, 10, 5, 2, 1, 0.5 and 0 µM with 2% DMSO in DTT buffer in each reaction well (total inhibitor volume of 50 µl).
To each reaction well is added 20 µl of substrate (final concentration of 40 µM), 50 µl of inhibitor (at a concentration such that final dilution will produce the test concentration) and 20 µl of DTT buffer. The reaction plate (96 wells) is incubated at 37 °C for at least 5 minutes.
10 µl of the diluted protease is added to the reaction well while the reaction plate is shaking. Once shaken for 10 seconds, the plate is returned to the heating block at 37 °C. (Final reaction volume = 100 µl.)
The reaction is incubated for 5 minutes at 37 °C. The reaction is stopped by placing the reaction plate on the shaker and adding 20 µl of 10% trifluoroacetic acid (TFA) and shaking for 10 seconds. The amount of proteolysis is then determined by separation of noncleaved substrate and two cleaved products with reverse-phase HPLC, while measuring absorbance at 220 nm to determine the relative peak areas of the three components. The relative peak areas are used to calculate % conversion to product as a function of inhibitor concentration. The data is plotted as % Control (the ratio of % conversion in the presence and absence of inhibitor x 100) versus inhibitor concentration and fit with the equation Y= 100/1+(X/IC50)^A, where IC50 is the inhibitor concentration at 50% inhibition and A is the slope of the inhibition curve.

HIV-1iiib = assay: Anti-HIV-1 activity, acute infection of H9 cells; assay type: cell-based; settings: Human immunodeficiency virus 1; H9 cell line infected with HIV-1iiib; reverse transcriptase assay at 4 and 7 days post infection; read-out: Concentration for 50% Protection
Experimental: Using the general methods of Pauwels et al., (J. Virol. Methods, 16, 171-185, 1987) and Mann et al. (AIDS Research and Human Retroviruses, 253-255, 1989) anti-viral assays of acute HIV-1 infection were performed in the H9 cell line. Cultures were batch infected in 1 ml of RPM1 1640 media/10% fetal calf serum containing 10^7 cells and 10^5 infectious doses of HIV-1iiib for an effective multiplicity of infection of 0.01. After 2 hours of viral absorption, cells were washed once and plated in 96-well microtiter plates at a density of 10^4 cells per well. Test compounds were added to produce the desired concentration of drug and 0.2% DMSO in a final volume of 200 µl. Uninfected parallel cultures were maintained for XTT cytotoxicity assay at 7 days post infection. Cultures were tested for viral replication by reverse transcriptase assay at 4 and 7 days post infection.

[1] = 40 µM substrate, pH 4.7, 37 °C, 5 minutes

IC50 (HIV-I Protease; [1]): 770 nM
Compound: O=c1oc(-c2ccc(OCc3ccccn3)cc2)cc(O)c1SCCc1ccccc1 [Example 59, 4-Hydroxy-3-[(2-phenylethyl)thio]-6-[4-(2-pyridinylmethoxy)phenyl]-2H-pyran-2-one]

EC50 (HIV-1iiib): 31000 nM
Compound: Cc1cc(C)cc(-c2cc(O)c(Sc3ccccc3C(C)C)c(=O)o2)c1 [Example 154, 6-(3,5-Dimethylphenyl)-4-hydroxy-3-[(2-isopropylphenyl)-thio]-2H-pyran-2-one]

IC50 (HIV-I Protease; [1]): 600 nM
Compound: O=c1oc(-c2ccc3c(c2)OCO3)cc(O)c1SCc1ccccc1 [Example 50, 6-(1,3-Benzodioxol-5-yl)-4-hydroxy-3-[(phenylmethyl)thio]-2H-pyran-2-one]

IC50 (HIV-I Protease; [1]): 450 nM
Compound: COc1ccccc1COc1ccc(-c2cc(O)c(SCCc3ccccc3)c(=O)o2)cc1 [Example 54, 4-Hydroxy-6-[4-[(2-methoxyphenyl)methoxy]phenyl]-3-[(2-phenylethyl)thio]-2H-pyran-2-one]

IC50 (HIV-I Protease): 480 nM
EC50 (HIV-1iiib): 15000 nM
Compound: O=c1oc(-c2ccc3c(c2)OCCO3)cc(O)c1SCc1ccccc1 [Example 107, 6-(2,3-Dihydro-1,4-benzodioxin-6-yl)-4-hydroxy-3-[(phenylmethyl)thio]-2H-pyran-2-one]

IC50 (HIV-I Protease; [1]): 860 nM
Compound: Cc1cccc(-c2cc(O)c(SCc3ccccc3)c(=O)o2)c1 [Example 42, 4-Hydroxy-6-(3-methylphenyl)-3-[(phenylmethyl)thio]-2H-pyran-2-one]

IC50 (HIV-I Protease): 55 nM
Compound: O=c1oc(-c2ccccc2)cc(O)c1C(CC1CC1)SC1CCCC1 (racemic) [Example 149, 3-[1-[Cyclopentylthio]-2-cyclopropylethyl]-4-hydroxy-6-phenyl-2H-pyran-2-one]

IC50 (HIV-I Protease; [1]): 410 nM
EC50 (HIV-1iiib): 15000 nM
Compound: CC(C)CC(Sc1ccccc1)c1c(O)cc(-c2ccccc2)oc1=O (racemic) [Example 73, 4-Hydroxy-3-[3-methyl-1-(phenylthio)butyl]-6-phenyl-2H-pyran-2-one]

IC50 (HIV-I Protease; [1]): 1500 nM
EC50 (HIV-1iiib): 3000 nM
Compound: O=c1oc(-c2ccc(OCc3cccnc3)cc2)cc(O)c1SCCc1ccccc1 [Example 64, 4-Hydroxy-3-[(2-phenylethyl)thio]-6-[4-(3-pyridinylmethoxy)phenyl]-2H-pyran-2-one]

IC50 (HIV-I Protease; [1]): 240 nM
Compound: Cc1cc(-c2cc(O)c(SCc3ccccc3)c(=O)o2)cc(C)c1O [Example 99, 4-Hydroxy-6-(4-hydroxy-3,5-dimethylphenyl)-3-[(phenylmethyl)thio]-2H-pyran-2-one]

IC50 (HIV-I Protease; [1]): 1200 nM
Compound: O=c1oc(-c2cccc(O)c2)cc(O)c1SCc1ccccc1 [Example 23, 4-Hydroxy-6-(3-hydroxyphenyl)-3-[(phenylmethyl)thio]-2H-pyran-2-one]

IC50 (HIV-I Protease; [1]): 900 nM
Compound: COc1cccc(-c2cc(O)c(SCc3ccccc3)c(=O)o2)c1 [Example 4, 4-Hydroxy-6-(3-methoxyphenyl)-3-[(phenylmethyl)thio]-2H-pyran-2-one]

IC50 (HIV-I Protease; [1]): 610 nM
Compound: CCOC(=O)COc1ccc(-c2cc(O)c(SCCc3ccccc3)c(=O)o2)cc1 [Example 60, 4-[4-Hydroxy-2-oxo-3-[(2-phenylethyl)thio]-2H-pyran-6-yl]phenoxy acetic acid ethyl eater]

IC50 (HIV-I Protease; [1]): 70 nM
Compound: CC(C)CC(SC1CCCC1)c1c(O)cc(-c2ccccc2)oc1=O (racemic) [Example 96, 3-[1-(Cyclopentylthio)-3-methylbutyl]-4-hydroxy-6-phenyl-2H-pyran-2-one]

IC50 (HIV-I Protease; [1]): 700 nM
Compound: COc1ccc(-c2cc(O)c(SCc3ccccc3)c(=O)o2)cc1C [Example 46, 4-Hydroxy-6-(4-methoxy-3-methylphenyl)-3-[(phenylmethyl)thio]-2H-pyran-2-one]

IC50 (HIV-I Protease; [1]): 1700 nM
Compound: O=c1oc(-c2ccccc2)cc(O)c1SCc1ccccc1 [Example 8]

IC50 (HIV-I Protease; [1]): 750 nM
Compound: O=c1oc(-c2cccc(OCc3ccccc3)c2)cc(O)c1SCCc1ccccc1 [Example 39, 4-Hydroxy-3-[(2-phenylethyl)thio]-6-[3-(phenylmethoxy)phenyl]-2H-pyran-2-one]

IC50 (HIV-I Protease; [1]): 470 nM
Compound: O=c1oc(-c2cccc(Cl)c2)cc(O)c1SCc1ccccc1 [Example 1, 6-(3-Chlorophenyl)-4-hydroxy-3-[(phenylmethyl)thio]-2H-pyran-2-one]

IC50 (HIV-I Protease; [1]): 200 nM
Compound: CC(C)CC(SC1CCCCC1)c1c(O)cc(-c2ccc3c(c2)OCCO3)oc1=O (racemic) [Example 115, 3-[1-(Cyclohexylthio)-3-methylbutyl]-6-(2,3-dihydro-1,4-benzodioxin-6-yl)4-hydroxy-2H-pyran-2-one]

Further lines, the compound ahead of its results:

Compound: O=c1oc(-c2ccc(O)cc2)cc(O)c1SCCc1ccccc1 [Example 24, 4-Hydroxy-6-(4-hydroxyphenyl)-3-[(phenylethyl)thio]-2H-pyran-2-one]
IC50 (HIV-I Protease; [1]): 500 nM

Compound: O=C(O)COc1ccc(-c2cc(O)c(SCCc3ccccc3)c(=O)o2)cc1 [Example 63, 4-[4-Hydroxy-2-oxo-3-[(2-phenylethyl)thio]-2H-pyran-6-yl]phenoxyacetic acid]
IC50 (HIV-I Protease; [1]): 140 nM

Compound: O=c1oc(-c2cccc(OCCc3ccccc3)c2)cc(O)c1SCCc1ccccc1 [Example 30, 4-Hydroxy-6-[3-(2-phenylethoxy)phenyl]-3-[(2-phenyl-ethyl)thio]-2H-pyran-2-one]
IC50 (HIV-I Protease; [1]): 1970 nM

Compound: O=c1oc(-c2ccccc2)cc(O)c1SC/C=C/c1ccccc1 [Example 25, 4-Hydroxy-6-phenyl-3-[3-(phenyl-2-propenyl)thio]-2H-pyran-2-one, (E)-]
IC50 (HIV-I Protease; [1]): 1900 nM

Compound: Cc1cc(C)cc(-c2cc(O)c(Sc3ccccc3)c(=O)o2)c1 [Example 148, 6-(3,5-Dimethylphenyl)-4-hydroxy-3-(phenylthio)-2H-pyran-2-one]
IC50 (HIV-I Protease; [1]): 630 nM

Compound: O=c1oc(-c2ccc(Cl)c(Cl)c2)cc(O)c1SCc1ccccc1 [Example 3, 6-(3,4-Dichlorophenyl)-4-hydroxy-3-[(phenylmethyl)thio]-2H-pyran-2-one]
IC50 (HIV-I Protease; [1]): 1000 nM

Compound: O=c1oc(-c2ccccc2)cc(O)c1SCCOc1ccccc1 [Example 20, 4-Hydroxy-3-[(2-phenoxyethyl)thio]-6-phenyl-2H-pyran-2-one]
IC50 (HIV-I Protease; [1]): 1700 nM

Compound: O=c1oc(-c2ccc(O)cc2)cc(O)c1SCc1ccccc1 [Example 15, 4-Hydroxy-6-(4-hydroxyphenyl)-3-[(phenylmethyl)thio]-2H-pyran-2-one]
IC50 (HIV-I Protease; [1]): 690 nM

Compound: O=c1oc(-c2ccc(Oc3ccccc3)cc2)cc(O)c1SCCc1ccccc1 [Example 57, 4-Hydroxy-6-(4-phenoxyphenyl)-3-[(2-phenylethyl)thio]-2H-pyran-2-one]
IC50 (HIV-I Protease; [1]): 1900 nM

Compound: O=c1oc(-c2ccccc2)cc(O)c1C(SC1CCCC1)C1CCCC1 (racemic) [Example 151, 3-[Cyclopentyl(cyclopentylthio)methyl]-4-hydroxy-6-phenyl-2H-pyran-2-one]
IC50 (HIV-I Protease; [1]): 230 nM
EC50 (HIV-1iiib): 14000 nM

Compound: O=c1oc(-c2ccccc2)cc(O)c1C(CC1CC1)SCc1ccccc1 (racemic) [Example 119, 3-[2-Cyclopropyl-1-[(phenylmethyl)thio]ethyl]-4-hydroxy-6-phenyl-2H-pyran-2-one]
IC50 (HIV-I Protease; [1]): 60 nM

Compound: O=c1oc(-c2cccc(-c3ccccc3)c2)cc(O)c1Sc1ccc2ccccc2c1 [Example 168, 6-(1,1'-Biphenyl-3-yl)-4-hydroxy-3-[(naphthalen-2-yl)thio]-2H-pyran-2-one]
IC50 (HIV-I Protease; [1]): 410 nM

Compound: O=c1oc(-c2cccc(Cl)c2)cc(O)c1SCCc1ccccc1 [Example 6, 6-(3-Chlorophenyl)-4-hydroxy-3-[(2-phenylethyl)thio]-2H-pyran-2-one]
IC50 (HIV-I Protease; [1]): 400 nM

Compound: O=c1oc(-c2ccccc2)cc(O)c1C(Sc1ccccc1)c1ccccc1 (racemic) [Example 31, 4-Hydroxy-6-phenyl-3-[phenyl(phenylthio)methyl]-2H-pyran-2-one]
IC50 (HIV-I Protease; [1]): 800 nM
